Data taken from US20230303564A1, “PYRIMIDINE RING COMPOUND” (MEDSHINE DISCOVERY INC., priority 2020, published 2023).

Target: CDK2/CyclinE1 (Homo sapiens (Human), UniProt P24941)
Experiment: CDK2/CyclinE1 enzyme activity test (ADP-Glo)
Assay type: biochemical
Conditions: 150 μM ATP, 25° C. 60 minutes, read-out: CDK2/Cyclin E1 IC50
Description: CDK2/CyclinE1 Enzyme Reaction System
Enzymes, substrates, ATP, and inhibitors were diluted by kinase buffer in the kit. The compounds to be tested were diluted 5-fold with a multi-channel pipette to the eighth concentration, that is, from 50 μM to 0.65 nM, the concentration of DMSO was 5%, and a double-hole experiment was set up. 1 μL of each concentration gradient of inhibitors, 2 μL of CDK2/CyclinE1 enzyme (2 ng), 2 μL mixture of substrate and ATP (150 μM ATP, 0.1 μg/μL substrate) were added to the microplates, and the final concentration gradient of the compound was 10 μM to 0.13 nM. The reaction system was reacted at 25° C. for 60 minutes. After the reaction, 5 μL of ADP-Glo reagent was added to each well, the reaction was carried out at 25° C. for 40 minutes, after the reaction was completed, 10 μL of kinase detection reagent was added to each well, the reaction was carried out at 25° C. for 30 minutes, the multiple label analyzer was used to read the chemiluminescence with an integration time of 0.5 seconds.
(§1) The equation (Sample−Min)/(Max−Min)*100% was used to convert the raw data into inhibition rate, and the value of IC50 can be obtained by curve fitting with four parameters (obtained by log (inhibitor) vs. response-Variable slope mode in GraphPad Prism). The enzymatic inhibitory activity of the compounds of the present disclosure on CDK1/CyclinB1, CDK2/CyclinA2, CDK2/CyclinE1, CDK4/CyclinD1, CDK6/CyclinD1, CDK7/CyclinH/MAT1, CDK9/CyclinT1 was provided in Table 1.

SMILES	IC50
CS(=O)(=O)N1CCC(Nc2ncc3cc(C(F)F)nc(N[C@@H]4CCCC4(F)F)c3n2)CC1 (single isomer, unassigned) [Compound 22]	3.52 nM
Cc1cn(C)nc1Nc1nc(C(F)F)cc2cnc(NC3CCN(S(C)(=O)=O)CC3)nc12 [Compound 19]	4.73 nM
Cn1cc(Cl)c(Nc2nc(C(F)F)cc3cnc(NC4CCN(S(C)(=O)=O)CC4)nc23)n1 [Compound 20]	1.33 nM

Target: CDK4/CyclinD1 (Homo sapiens (Human), UniProt P11802)
Experiment: CDK4/CyclinD1 enzyme activity test (LANCE Ultra TR-FRET)
Assay type: biochemical
Conditions: 350 μM ATP, 25° C. 120 minutes, read-out: CDK4/Cyclin D1 IC50
Description: CDK4/CyclinD1 Enzyme Reaction System
(§2) Preparation of Kinase Buffer:
(§3) The composition of the buffer: 50 mM of hydroxyethylpiperazine ethanesulfonic acid solution at pH 7.5, 1 mM of ethylenediaminetetraacetic acid, 10 mM of magnesium chloride, 0.01% Brij-35, and 2 mM of dithiothreitol.
(§4) Enzymes, substrate LANCE Ultra ULight™-4E-BP-1(Thr37146) Peptide, ATP, and inhibitors were diluted by kinase buffer.
(§5) The compounds to be tested were diluted 5-fold with a multi-channel pipette to the eighth concentration, that is, from 40 μM to 0.512 nM, the concentration of DMSO was 4%, and a double-hole experiment was set up. […] The reaction system was reacted at 25° C. for 120 minutes. After the reaction, 5 μL mixture of EDTA and 2× LANCE™ Detection Buffer (1:1) were added to each well, the reaction was carried out at 25° C. for 5 minutes, after the reaction was completed, 5 μL of LANCE Ultra Eu-anti-P-4E-BP1(Thr37MS) (4 nM) was added to each well, the reaction was carried out at 25° C. for 60 minutes, the reaction signal was detected by Nivo instrument according to the principle of time-resolved fluorescence resonance energy transfer.
as §1

Sequence of CDK4/CyclinD1 (P11802 whole entry): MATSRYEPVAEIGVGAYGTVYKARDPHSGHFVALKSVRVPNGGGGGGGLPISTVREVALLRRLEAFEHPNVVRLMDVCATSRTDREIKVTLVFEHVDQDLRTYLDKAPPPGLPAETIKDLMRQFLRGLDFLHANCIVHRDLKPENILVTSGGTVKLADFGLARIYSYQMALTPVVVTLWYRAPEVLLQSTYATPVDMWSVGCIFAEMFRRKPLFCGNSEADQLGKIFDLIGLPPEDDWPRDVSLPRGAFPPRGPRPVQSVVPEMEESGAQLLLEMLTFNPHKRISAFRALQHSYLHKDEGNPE
Sequence of CDK4/CyclinD1 (P24385 whole entry partner): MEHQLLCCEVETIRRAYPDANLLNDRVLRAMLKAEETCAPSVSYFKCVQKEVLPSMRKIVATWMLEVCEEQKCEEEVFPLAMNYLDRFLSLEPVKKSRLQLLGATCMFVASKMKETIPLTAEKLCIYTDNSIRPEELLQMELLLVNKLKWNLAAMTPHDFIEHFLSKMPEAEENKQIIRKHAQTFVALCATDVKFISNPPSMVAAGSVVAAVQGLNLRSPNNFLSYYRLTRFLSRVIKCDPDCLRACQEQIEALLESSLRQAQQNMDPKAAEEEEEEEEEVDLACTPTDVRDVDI

SMILES	IC50
CS(=O)(=O)N1CCC(Nc2ncc3cc(C(F)F)nc(N[C@@H]4CCCC4(F)F)c3n2)CC1 (single isomer, unassigned) [Compound 22]	0.5 nM
Cc1cn(C)nc1Nc1nc(C(F)F)cc2cnc(NC3CCN(S(C)(=O)=O)CC3)nc12 [Compound 19]	4.26 nM
Cn1cc(Cl)c(Nc2nc(C(F)F)cc3cnc(NC4CCN(S(C)(=O)=O)CC4)nc23)n1 [Compound 20]	0.82 nM

Target: CDK6/CyclinD1 (Homo sapiens (Human), UniProt Q00534)
Experiment: CDK6/CyclinD1 enzyme activity test (LANCE Ultra TR-FRET)
Assay type: biochemical
Conditions: 250 μM ATP, 25° C. 120 minutes, read-out: CDK6/Cyclin D1 IC50
Description: CDK6/CyclinD1 Enzyme Reaction System
as §2, §3, §4, §5, §1

Sequence of CDK6/CyclinD1 (Q00534 whole entry): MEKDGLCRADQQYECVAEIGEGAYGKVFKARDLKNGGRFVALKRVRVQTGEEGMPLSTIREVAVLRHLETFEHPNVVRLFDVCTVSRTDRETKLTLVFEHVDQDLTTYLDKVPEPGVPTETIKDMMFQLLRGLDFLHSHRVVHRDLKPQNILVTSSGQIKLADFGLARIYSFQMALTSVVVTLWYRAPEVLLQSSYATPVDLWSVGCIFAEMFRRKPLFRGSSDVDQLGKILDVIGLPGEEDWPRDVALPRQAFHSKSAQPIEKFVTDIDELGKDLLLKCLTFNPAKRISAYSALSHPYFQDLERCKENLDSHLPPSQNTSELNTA
Sequence of CDK6/CyclinD1 (P24385 whole entry partner): as the sequence (P24385 whole entry partner) above

SMILES	IC50
CS(=O)(=O)N1CCC(Nc2ncc3cc(C(F)F)nc(N[C@@H]4CCCC4(F)F)c3n2)CC1 (single isomer, unassigned) [Compound 22]	1.36 nM
Cc1cn(C)nc1Nc1nc(C(F)F)cc2cnc(NC3CCN(S(C)(=O)=O)CC3)nc12 [Compound 19]	1.15 nM
Cn1cc(Cl)c(Nc2nc(C(F)F)cc3cnc(NC4CCN(S(C)(=O)=O)CC4)nc23)n1 [Compound 20]	0.56 nM

Tested on: OVCAR-3 cells
Experiment: Cell activity test, anti-proliferation (CellTiter Glo), OVCAR-3
Assay type: cell-based, human
Conditions: OVCAR-3, 7 days of culture
Description: 2) Day 1: Laying Cell Plates
(6) 0.7 mL of cell suspension was pipetted into the counting cup, the cells were counted on ViCell XR, and the cell suspension was diluted separately with culture medium to the required cell concentration for laying cell plates: 1000/30 ul.
(7) Microplates (2 plates) were required, 100 uL of phosphate buffered saline was added to the peripheral wells of the 384-well plate, 30 uL of cell suspension was added to the other wells, and the cell plate was placed into incubator for culture.
(1) Compound preparation: the stock solution of the compound to be tested was 10 mM.
(2) The compound to be tested was diluted 3 times with DMSO for 10 gradients.
(2) The compound to be tested was diluted with culture medium, and the highest final concentration was 10 μM.
(4) 10 μL of the compound was pipetted into the 384-well plate, and then the cell plate was placed back into the incubator for culture.
4) Adding CTG and Reading the Plate
(1) After 7 days of culture, 50 ul CellTiter Glo was added to the cell plate, shaken for 10 minutes in the dark, and left at room temperature for 5 minutes.
(2) The plate was read on Envision with the program: US LUM 384 (CPS). The experiment was originally stored in the personal disk:
1. The mean and standard deviation of 0% inhibition (DMSO row, ZPE) and 100% inhibition (PBS row, HPE) were calculated;
2. Inhibition rate (%)=(1−(sample value-average value of 100% inhibition)/(average value of 0% inhibition-average value of 100% inhibition))*100;
3. The curve was fitted by GraphPad 8.0 software;

SMILES	IC50
CS(=O)(=O)N1CCC(Nc2ncc3cc(C(F)F)nc(N[C@@H]4CCCC4(F)F)c3n2)CC1 (single isomer, unassigned) [Compound 22]	44 nM
Cc1cn(C)nc1Nc1nc(C(F)F)cc2cnc(NC3CCN(S(C)(=O)=O)CC3)nc12 [Compound 19]	29 nM
Cn1cc(Cl)c(Nc2nc(C(F)F)cc3cnc(NC4CCN(S(C)(=O)=O)CC4)nc23)n1 [Compound 20]	12 nM

Tested on: human ovarian cancer OVCAR-3 cells subcutaneous xenograft tumor
Experiment: In vivo efficacy study, OVCAR-3 subcutaneous xenograft tumor BALB/c nude mouse model
Conditions: Day 0 (at grouping), OVCAR-3 xenograft, BALB/c nude mice
Description: In vivo efficacy study of human ovarian cancer OVCAR-3 cells subcutaneous xenograft tumor BALB/c nude mouse model
Cell culture: Human ovarian cancer OVCAR-3 cells were monolayer cultured in vitro, the culture conditions were 10% fetal bovine serum, 100 U/mL Penicillin and 100 μg/mL Streptomycin were added in RPMI 1640 medium, cultured at 37° C. 5% CO2 incubator. Conventional digestion with trypsin-EDTA was performed for passage. When the cell saturation was 80%/90% and the number reached the required level, the cells were collected, counted, and inoculated.
Animals: BALB/c nude mice, female, 6-8 weeks old, weighed 18-22 grams. A total of 95 (42+ additional 53) animals were needed, provided by the Experimental Animal Management Department of Shanghai Institute of Family Planning Sciences (formerly Shanghai Sipulbichem).
Tumor inoculation: 0.2 mL (1×10^7) OVCAR-3 cells (with matrix glue, volume ratio of 1:1) were subcutaneously inoculated on the right back of each mouse, and the mice were grouped administrated when the average tumor volume reached about 150 mm^3.
Dosage and frequency of administration: Day 0 to Day 7, 10 mg/kg; Day 7 to Day 14, 10 mg/kg; Day 14 to Day 21, 30 mg/kg;
Experimental index: The experimental index was used to examine whether tumor growth was inhibited, delayed or cured. Tumor diameters were measured with vernier calipers twice a week. The calculation formula of tumor volume was: V=0.5a×b^2, wherein a and b represented the long and short diameters of the tumor, respectively.

SMILES	Tumor volume (Day 0)
CS(=O)(=O)N1CCC(Nc2ncc3cc(C(F)F)nc(N[C@@H]4CCCC4(F)F)c3n2)CC1 (single isomer, unassigned) [Compound 22]	151 mm^3
Cc1cn(C)nc1Nc1nc(C(F)F)cc2cnc(NC3CCN(S(C)(=O)=O)CC3)nc12 [Compound 19]	151 mm^3
Cn1cc(Cl)c(Nc2nc(C(F)F)cc3cnc(NC4CCN(S(C)(=O)=O)CC4)nc23)n1 [Compound 20]	151 mm^3

Same assay, conditions: Day 7; 10 mg/kg from day 0 to day 7

SMILES	Tumor volume (Day 7)
CS(=O)(=O)N1CCC(Nc2ncc3cc(C(F)F)nc(N[C@@H]4CCCC4(F)F)c3n2)CC1 (single isomer, unassigned) [Compound 22]	243 mm^3
Cc1cn(C)nc1Nc1nc(C(F)F)cc2cnc(NC3CCN(S(C)(=O)=O)CC3)nc12 [Compound 19]	246 mm^3
Cn1cc(Cl)c(Nc2nc(C(F)F)cc3cnc(NC4CCN(S(C)(=O)=O)CC4)nc23)n1 [Compound 20]	236 mm^3

Same assay, conditions: Day 14; 10 mg/kg from day 0 to day 14

SMILES	Tumor volume (Day 14)
CS(=O)(=O)N1CCC(Nc2ncc3cc(C(F)F)nc(N[C@@H]4CCCC4(F)F)c3n2)CC1 (single isomer, unassigned) [Compound 22]	319 mm^3
Cc1cn(C)nc1Nc1nc(C(F)F)cc2cnc(NC3CCN(S(C)(=O)=O)CC3)nc12 [Compound 19]	375 mm^3
Cn1cc(Cl)c(Nc2nc(C(F)F)cc3cnc(NC4CCN(S(C)(=O)=O)CC4)nc23)n1 [Compound 20]	338 mm^3

Same assay, conditions: Day 21; 10 mg/kg day 0 to day 14, 30 mg/kg from day 14 to day 21

SMILES	Tumor volume (Day 21)
CS(=O)(=O)N1CCC(Nc2ncc3cc(C(F)F)nc(N[C@@H]4CCCC4(F)F)c3n2)CC1 (single isomer, unassigned) [Compound 22]	238 mm^3
Cc1cn(C)nc1Nc1nc(C(F)F)cc2cnc(NC3CCN(S(C)(=O)=O)CC3)nc12 [Compound 19]	392 mm^3
Cn1cc(Cl)c(Nc2nc(C(F)F)cc3cnc(NC4CCN(S(C)(=O)=O)CC4)nc23)n1 [Compound 20]	363 mm^3
